Laboratory results: patent publication US20240292840A1, “TRIAZOLE COMPOUNDS FOR THE CONTROL OF INVERTEBRATE PESTS” (priority 2021, published 2024)

Columns and labels:
[1] = system: Boll Weevil (Anthonomus grandis); experiment: B.5 Boll weevil egg/larval test on insect diet in microtiter plates; assay type: in vivo; settings: 120 h, egg and larval mortality, 5 days, read-out: mortality in comparison with untreated controls
Experimental: B.5 Boll Weevil (Anthonomus grandis)
For evaluating control of boll weevil (Anthonomus grandis), the test unit consisted of 96-well-microtiter plates containing an insect diet and 5-10 A. grandis eggs.
The compounds were formulated using a solution containing 75% v/v water and 25% v/v DMSO. Different concentrations of formulated compounds were sprayed onto the insect diet at 5 μl, using a custom-built micro atomizer, at two replications.
After application, microtiter plates were incubated at about 25±1° C. and about 75±5% relative humidity for 5 days. Egg and larval mortality was then visually assessed.

[2] = system: Yellow Fever Mosquito (Aedes aegypti); experiment: whole plant or invertebrate; assay type: in vivo; settings: 48 h, larval mortality, 2 days, read-out: mortality in comparison with untreated controls
Experimental: B.8 Yellow Fever Mosquito (Aedes aegypti)
For evaluating control of yellow fever mosquito (Aedes aegypti) the test unit consisted of 96-well-microtiter plates containing 200 μl of tap water per well and 5-15 freshly hatched A. aegypti larvae.
The active compounds were formulated using a solution containing 75% (v/v) water and 25% (v/v) DMSO. Different concentrations of formulated compounds or mixtures were sprayed onto the insect diet at 2.5 μl, using a custom-built micro atomizer, at two replications.
After application, microtiter plates were incubated at 28±1° C., 80±5% RH for 2 days. Larval mortality was then visually assessed.

| SMILES | mortality at 2500 ppm [1] [%] | mortality at 2500 ppm [2] [%] |
| --- | --- | --- |
| C/C(=N/O)n1ncnc1C(C)NC(=O)c1cc(C(F)(F)F)cc(C(F)(F)F)c1 (centres unmarked) [I.1-1, N-[1-[2-[(Z)—N-hydroxy-C-methyl-carbonimidoyl]-1,2,4-triazol-3-yl]ethyl]-3,5-bis(trifluoromethyl)benzamide] | ≥ 75 | – |
| CCON=C(C)n1ncnc1C(C)NC(=O)c1cc(Cl)cc(C(F)(F)F)c1 (centres unmarked) [I.1-12, 3-chloro-N-[1-[2-(N-ethoxy-C-methyl-carbonimidoyl)-1,2,4-triazol-3-yl]ethyl]-5-(trifluoromethyl)benzamide] | ≥ 75 | ≥ 75 |
| CC(=NOc1ccccc1)n1ncnc1C(C)NC(=O)c1cc(Cl)cc(C(F)(F)F)c1 (centres unmarked) [I.1-13, 3-chloro-N-[1-[2-[C-methyl-N-phenoxy-carbonimidoyl]-1,2,4-triazol-3-yl]ethyl]-5-(trifluoromethyl)benzamide] | – | ≥ 75 |
| C/C(=N\O)n1ncnc1C(C)NC(=O)c1cc(C(F)(F)F)cc(C(F)(F)F)c1 (centres unmarked) [I.1-76, N-[1-[2-[(E)-N-hydroxy-C-methyl-carbonimidoyl]-1,2,4-triazol-3-yl]ethyl]-3,5-bis(trifluoromethyl)benzamide] | ≥ 75 | – |
